Here are results for 11 compounds from patent US20250313572A1, “MACROCYCLIC MCL-1 INHIBITORS AND METHODS OF USE” (AbbVie Inc., priority 2017, published 2025).

Where two headings read alike, the source gives them in different places.

A word on the IC50: it is the concentration that inhibits the measured activity by half. A word on the Ki: it is a measure of affinity in units of concentration, obtained from inhibition or displacement.

Assay [1] concerns NCI-H929 human multiple myeloma tumor cell line. Put plainly: NCI-H929 cell viability assay (CellTiter-Glo, 24 hours). The conditions noted are these: Homo sapiens, NCI-H929, 24 h, read-out: H929 Viability IC50 (μM, 10% FBS), 10% FBS, 24 hours of compound treatment. In kind it is cell-based. (In general: In ATP-based viability assays light output follows the ATP content of the culture.)

In another assay the target is GST-MCL-1 (Homo sapiens, UniProt Q07820). Nature of the assay: TR-FRET MCL-1 binding assay (competition with probe F-Bak). A digest of the protocol:
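Test compounds, 11 three-fold dilutions from 25 μM final, incubated 2 hours at room temperature with GST-MCL-1, F-Bak probe and Tb-anti-GST antibody. TR-FRET read at 340/35 nm excitation with 520/525 and 495/510 nm emission. Run without human serum and with 10% HS.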
(In general: In TR-FRET formats the signal depends on donor and acceptor labels being close together.)

Assay [2] concerns AMO-1 human multiple myeloma tumor cell line. Nature of the assay: AMO-1 cell viability assay (CellTiter-Glo, 24 hours). Conditions: Homo sapiens, AMO1, 24 h, read-out: AMO-1 Viability IC50 (μM, 10% FBS), 10% FBS, 24 hours of compound treatment. The assay is classed as cell-based.
Where [3] appears, read: MCL-1 Binding Ki (nM, 10% HS), in the presence of 10% HS (human serum).
[4] abbreviates: without HS, read-out: MCL-1 Binding Ki.

GST-MCL-1, sequence (Q07820 whole entry): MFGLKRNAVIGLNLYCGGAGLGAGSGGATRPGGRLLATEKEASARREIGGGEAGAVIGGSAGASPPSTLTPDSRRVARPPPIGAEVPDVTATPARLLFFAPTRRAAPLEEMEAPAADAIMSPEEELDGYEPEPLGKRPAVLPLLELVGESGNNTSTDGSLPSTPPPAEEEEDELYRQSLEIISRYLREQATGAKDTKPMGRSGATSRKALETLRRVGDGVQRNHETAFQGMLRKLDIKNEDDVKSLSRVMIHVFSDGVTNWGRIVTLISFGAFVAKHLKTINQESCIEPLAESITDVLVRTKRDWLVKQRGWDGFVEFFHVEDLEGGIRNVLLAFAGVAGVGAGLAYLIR

Consider `CO[C@@H]1CO[C@H]2[C@@H]1OC[C@H]2OCCOCCOc1ccc(-c2nccc(COc3ccc4cc3C[C@H](C(=O)O)Oc3ncnc5sc(-c6ccc(F)cc6)c(c35)-c3c(C)c(Cl)c(c(Cl)c3C)O[C@H](CN3CCN(C)CC3)CO4)n2)cc1` [Example 159, (7R,16R)-19,23-dichloro-1-(4-fluorophenyl)-10-[(2-{4-[2-(2-{[(3R,3aR,6R,6aR)-6-methoxyhexahydrofuro[3,2-b]furan-3-yl]oxy}ethoxy)ethoxy]phenyl}pyrimidin-4-yl)methoxy]-20,22-dimethyl-16-[(4-methylpiperazin-1-yl)methyl]-7,8,15,16-tetrahydro-18,21-etheno-13,9-(metheno)-6,14,17-trioxa-2-thia-3,5-diazacyclononadeca[1,2,3-cd]indene-7-carboxylic Acid], for which the IC50 is 0.000379 µM in assay [1] and 0.000296 µM in assay [2]. The Ki on GST-MCL-1 (setting [3]) stood at 0.087 nM; at GST-MCL-1 (setting [4]), 0.008 nM.

Turning to `COC[C@@H](COc1ccc(-c2nccc(COc3ccc4cc3C[C@H](C(=O)O)Oc3ncnc5sc(-c6ccc(F)cc6)c(c35)-c3c(C)c(Cl)c(c(Cl)c3C)O[C@H](CN3CCN(C)CC3)CO4)n2)cc1)OC` [Example 136, (7R,16R)-19,23-dichloro-10-[(2-{4-[(25)-2,3-dimethoxypropoxy]phenyl}pyrimidin-4-yl)methoxy]-1-(4-fluorophenyl)-20,22-dimethyl-16-[(4-methylpiperazin-1-yl)methyl]-7,8,15,16-tetrahydro-18,21-etheno-9,13-(metheno)-6,14,17-trioxa-2-thia-3,5-diazacyclononadeca[1,2,3-cd]indene-7-carboxylic acid], the IC50 was 0.000392 µM in assay [1] and 0.000403 µM in assay [2]. Also, the Ki on GST-MCL-1 (setting [3]) is 0.758 nM; on GST-MCL-1 (setting [4]), 0.027 nM.

On to `COCCOCCOCCOc1ccccc1-c1nccc(COc2ccc3cc2C[C@H](C(=O)O)Oc2ncnc4sc(-c5ccc(F)cc5)c(c24)-c2c(C)c(Cl)c(c(Cl)c2C)O[C@H](CN2CCN(C)CC2)CO3)n1` [Example 15, (7R,16R,21S)-19,23-dichloro-1-(4-fluorophenyl)-10-{[2-(2-{2-[2-(2-methoxyethoxy)ethoxy]ethoxy}phenyl)pyrimidin-4-yl]methoxy}-20,22-dimethyl-16-[(4-methylpiperazin-1-yl)methyl]-7,8,15,16-tetrahydro-18,21-etheno-9,13-(metheno)-6,14,17-trioxa-2-thia-3,5-diazacyclononadeca[1,2,3-cd]indene-7-carboxylic Acid], for which the IC50 in assay [1] amounted to 0.000751 µM; in assay [2] it was 0.000524 µM. The Ki on GST-MCL-1 (setting [3]) was found to be 0.152 nM; on GST-MCL-1 (setting [4]), 0.015 nM.

For `COCCOCCOCCOCCOCCOCCOC1(c2nccc(COc3ccc4cc3C[C@H](C(=O)O)Oc3ncnc5sc(-c6ccc(F)cc6)c(c35)-c3c(C)c(Cl)c(c(Cl)c3C)O[C@H](CN3CCN(C)CC3)CO4)n2)CCCC1` [Example 74, (7R,16R)-19,23-dichloro-1-(4-fluorophenyl)-10-[(2-{1-[(2,5,8,11,14,17-hexaoxanonadecan-19-yl)oxy]cyclopentyl}pyrimidin-4-yl)methoxy]-20,22-dimethyl-16-[(4-methylpiperazin-1-yl)methyl]-7,8,15,16-tetrahydro-18,21-etheno-9,13-(metheno)-6,14,17-trioxa-2-thia-3,5-diazacyclononadeca[1,2,3-cd]indene-7-carboxylic Acid], the results for the IC50 in assay [1] and in assay [2] were 0.00237 µM and 0.00153 µM, respectively. In addition, the Ki on GST-MCL-1 (setting [3]) amounted to 0.12 nM; on GST-MCL-1 (setting [4]), 0.083 nM.

In the case of `Cc1c(Cl)c2c(Cl)c(C)c1-c1c(-c3ccc(F)cc3)sc3ncnc(c13)O[C@@H](C(=O)O)Cc1cc(ccc1OCc1ccnc(N3C[C@H]4C[C@@H](C3)[C@H]4O)n1)OC[C@@H](CN1CCN(C)CC1)O2` [Example 167, (7R,16R)-19,23-dichloro-1-(4-fluorophenyl)-10-({2-[(1R,5S,6r)-6-hydroxy-3-azabicyclo[3.1.1]heptan-3-yl]pyrimidin-4-yl}methoxy)-20,22-dimethyl-16-[(4-methylpiperazin-1-yl)methyl]-7,8,15,16-tetrahydro-18,21-etheno-13,9-(metheno)-6,14,17-trioxa-2-thia-3,5-diazacyclononadeca[1,2,3-cd]indene-7-carboxylic Acid], the IC50 amounted to 0.00892 µM in assay [1] and 0.002 µM in assay [2]. In addition, the figures for the Ki on GST-MCL-1 (setting [3]) and on GST-MCL-1 (setting [4]) were 0.698 nM and 0.06 nM, respectively.

Turning to `COCCOCCOC[C@H]1CC=C(c2nccc(COc3ccc4cc3C[C@H](C(=O)O)Oc3ncnc5sc(-c6ccc(F)cc6)c(c35)-c3c(C)c(Cl)c(c(Cl)c3C)O[C@H](CN3CCN(C)CC3)CO4)n2)CC1` [Example 127, (7R,16R)-19,23-dichloro-1-(4-fluorophenyl)-10-({2-[(4R)-4-{[2-(2-methoxyethoxy)ethoxy]methyl}cyclohex-1-en-1-yl]pyrimidin-4-yl}methoxy)-20,22-dimethyl-16-[(4-methylpiperazin-1-yl)methyl]-7,8,15,16-tetrahydro-18,21-etheno-13,9-(metheno)-6,14,17-trioxa-2-thia-3,5-diazacyclononadeca[1,2,3-cd]indene-7-carboxylic acid], the IC50 in assay [1] was 0.000385 µM; in assay [2], 0.000124 µM. In addition, the Ki was determined as 0.339 nM on GST-MCL-1 (setting [3]) and 0.028 nM at GST-MCL-1 (setting [4]).

Turning to `Cc1c2ccc(c1Cl)O[C@H](CN1CCN(C)CC1)COc1ccc(OCc3ccnc(-c4ccc(CCC(=O)O)cc4)n3)c(c1)C[C@H](C(=O)O)Oc1ncnc3sc(-c4ccc(F)cc4)c-2c13` (atropisomer, axis not shown) [Example 17, (7R,16R,21S)-10-({2-[4-(2-carboxyethyl)phenyl]pyrimidin-4-yl}methoxy)-19-chloro-1-(4-fluorophenyl)-20-methyl-16-[(4-methylpiperazin-1-yl)methyl]-7,8,15,16-tetrahydro-18,21-etheno-13,9-(metheno)-6,14,17-trioxa-2-thia-3,5-diazacyclononadeca[1,2,3-cd]indene-7-carboxylic Acid], the IC50 was 0.0298 µM in assay [1] and 0.0155 µM in assay [2]. Besides, the Ki is 0.246 nM at GST-MCL-1 (setting [3]) and 0.015 nM on GST-MCL-1 (setting [4]).

Turning to `Cc1c(Cl)c2c(Cl)c(C)c1-c1c(-c3ccc(F)cc3)sc3ncnc(c13)O[C@@H](C(=O)O)Cc1cc(ccc1OCc1ccnc(-c3cccc(CCN4CCOCC4)c3)n1)OC[C@@H](CN1CCN(C)CC1)O2` [Example 143, (7R,16R)-19,23-dichloro-1-(4-fluorophenyl)-20,22-dimethyl-16-[(4-methylpiperazin-1-yl)methyl]-10-[(2-{3-[2-(morpholin-4-yl)ethyl]phenyl}pyrimidin-4-yl)methoxy]-7,8,15,16-tetrahydro-18,21-etheno-13,9-(metheno)-6,14,17-trioxa-2-thia-3,5-diazacyclononadeca[1,2,3-cd]indene-7-carboxylic Acid], the IC50 in assay [1] came to 0.000203 µM; in assay [2], 0.000216 µM. Also, the figures for the inhibitory constant (Ki) at GST-MCL-1 (setting [3]) and on GST-MCL-1 (setting [4]) were 0.175 nM and 0.023 nM, respectively.

On to `COCCOCCOCCOCCOCCOCCOCCOc1ccc(-c2nccc(COc3ccc4cc3C[C@H](C(=O)O)Oc3ncnc5sc(-c6ccc(F)cc6)c(c35)-c3c(C)c(Cl)c(c(Cl)c3C)O[C@H](CN3CCN(C)CC3)CO4)n2)cc1` [Example 54, (7R,16R)-19,23-dichloro-1-(4-fluorophenyl)-10-[(2-{4-[(2,5,8,11,14,17,20-heptaoxadocosan-22-yl)oxy]phenyl}pyrimidin-4-yl)methoxy]-20,22-dimethyl-16-[(4-methylpiperazin-1-yl)methyl]-7,8,15,16-tetrahydro-18,21-etheno-13,9-(metheno)-6,14,17-trioxa-2-thia-3,5-diazacyclononadeca[1,2,3-cd]indene-7-carboxylic Acid], for which the values for the IC50 in assay [1] and in assay [2] were 0.000771 µM and 0.000591 µM, respectively. In addition, the Ki on GST-MCL-1 (setting [3]) was determined as 0.139 nM; on GST-MCL-1 (setting [4]) it was 0.025 nM.

With `COCCOCCOCCOCCOCC1(F)CC=C(c2nccc(COc3ccc4cc3C[C@H](C(=O)O)Oc3ncnc5sc(-c6ccc(F)cc6)c(c35)-c3c(C)c(Cl)c(c(Cl)c3C)O[C@H](CN3CCN(C)CC3)CO4)n2)CC1` (single isomer, unassigned) [Example 106, (7R,16R)-19,23-dichloro-10-({2-[(4R*)-4-fluoro-4-(2,5,8,11,14-pentaoxapentadecan-1-yl)cyclohex-1-en-1-yl]pyrimidin-4-yl}methoxy)-1-(4-fluorophenyl)-20,22-dimethyl-16-[(4-methylpiperazin-1-yl)methyl]-7,8,15,16-tetrahydro-18,21-etheno-13,9-(metheno)-6,14,17-trioxa-2-thia-3,5-diazacyclononadeca[1,2,3-cd]indene-7-carboxylic Acid], the values for the IC50 in assay [1] and in assay [2] were 0.000288 µM and 0.000216 µM, respectively. Further, the Ki on GST-MCL-1 (setting [3]) is 0.166 nM; on GST-MCL-1 (setting [4]) it was 0.036 nM.

Turning to `Cc1c(Cl)c2c(Cl)c(C)c1-c1c(-c3ccc(F)cc3)sc3ncnc(c13)O[C@@H](C(=O)O)Cc1cc(ccc1OCc1ccnc(N3CCS(=O)(=O)CC3)n1)OC[C@@H](CN1CCN(C)CC1)O2` [Example 75, (7R,16R)-19,23-dichloro-10-{[2-(1,1-dioxo-1λ^6-thiomorpholin-4-yl)pyrimidin-4-yl]methoxy}-1-(4-fluorophenyl)-20,22-dimethyl-16-[(4-methylpiperazin-1-yl)methyl]-7,8,15,16-tetrahydro-18,21-etheno-9,13-(metheno)-6,14,17-trioxa-2-thia-3,5-diazacyclononadeca[1,2,3-cd]indene-7-carboxylic Acid], the IC50 in assay [1] is 0.00914 µM; in assay [2] it was 0.00386 µM. For the same compound, the Ki turned out to be 2.67 nM on GST-MCL-1 (setting [3]) and 0.375 nM at GST-MCL-1 (setting [4]).
